This note sets out measurements from patent US6083969A, “1,3- and 2,3-diarylcycloalkano and cycloalkeno pyrazoles as selective inhibitors of cyclooxygenase-2 and antiinflammatory agents” (Ortho-McNeil Pharaceutical, Inc., priority 1999, dated 2000).

A value given as a limit tells only on which side of the number the result lay.

Test [1] deals with T1, human prostaglandin H2 synthase type II (COX-2) (Homo sapiens, UniProt P35354).
T1 sequence (P35354 18-604): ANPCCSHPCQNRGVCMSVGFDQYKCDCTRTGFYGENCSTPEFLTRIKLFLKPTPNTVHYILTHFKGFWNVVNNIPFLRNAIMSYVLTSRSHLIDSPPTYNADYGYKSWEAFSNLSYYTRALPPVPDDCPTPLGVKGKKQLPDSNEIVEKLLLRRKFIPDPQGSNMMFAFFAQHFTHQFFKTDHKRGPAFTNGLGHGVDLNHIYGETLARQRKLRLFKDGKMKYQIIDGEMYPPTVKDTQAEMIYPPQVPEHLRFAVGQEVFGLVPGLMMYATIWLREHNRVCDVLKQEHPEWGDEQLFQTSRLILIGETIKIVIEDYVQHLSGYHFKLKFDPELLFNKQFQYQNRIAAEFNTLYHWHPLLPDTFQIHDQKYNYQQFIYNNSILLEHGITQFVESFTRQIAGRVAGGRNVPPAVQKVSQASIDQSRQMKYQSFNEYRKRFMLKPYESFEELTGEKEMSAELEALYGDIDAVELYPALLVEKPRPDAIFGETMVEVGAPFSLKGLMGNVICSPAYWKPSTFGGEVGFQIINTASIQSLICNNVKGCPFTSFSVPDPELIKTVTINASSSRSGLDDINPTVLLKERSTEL
As to the kind of experiment: Human prostaglandin H2 synthase type II (COX-2) whole cell assay (ECV-304 cells, PGE2 by radioimmunoassay). The settings on record: for inhibition at 3 µM: @3 μM (superscript a); for inhibition at 3 µM / inhibition at 10 µM: read-out: P1: COX 2 Whole Cell % Inhibition; for IC50: read-out: P2: COX 2 Whole Cell IC50. The test is classed as cell-based. On the set-up: endogenous in cells; host or cells: ECV-304. The protocol:
HUMAN PROSTAGLANDIN H2 SYNTHASE TYPE II (COX-2) WHOLE CELL ASSAY (MULTIPLE CONCENTRATIONS)
Procedures 1 and 2 were used to determine the ability of the compounds to inhibit human prostaglandin H2 synthase type II (COX-2) in a whole cell assay at multiple concentrations as follows:
Approximately 28 h later, […] PMA and […] ionomycin (both final concentrations) are added to each well and incubated for an additional 16 h. Vehicle or test compounds in the amount of […] are incubated with the cells for five minutes prior to initiation of COX-2 enzyme activity by the addition of 30 μM arachidonic acid. Ten minutes later, an aliquot of the supernatant is withdrawn and the amount of PGE2 present quantitated by radioimmunoassay. Activity, reported as percent inhibition of PGE2 produced, is calculated as follows: [formula]

In test [2] the target is T2, COX-1 (Homo sapiens, UniProt P23219).
T2 construct: Remove the platelet-rich plasma (PRP) and dilute the PRP 1:20 with 0.9% NaCl; endogenous in cells; host or cells: human platelets (platelet-rich plasma of one volunteer)
As to the kind of experiment: Human platelet thromboxane B2 production (via COX-1). It is filed as cell-based. The following applies: @3 μM (superscript b); human platelets, TXB2 production; read-out: P5: COX 1 Human Platelet % Inhibition.

In test [3] the target is T2, COX-1. The description is as above. It is filed as cell-based. The settings on record: human platelets, TXB2 production; read-out: P5: COX 1 Human Platelet IC50. The protocol:
HUMAN […] THROMBOXANE B2 PRODUCTION (via COX-1)
Procedure 5 was used to determine thromboxane B2 (TXB2) production (via COX-1) in human platelets as follows:
Draw blood from one volunteer into heparinized tubes then spin at RT for 15 to 20 minutes at 1,000 RPM. Remove the platelet-rich plasma (PRP) and dilute the PRP 1:20 with 0.9% NaCl containing 14.4U heparin/mL. Add 180 μL of the diluted PRP to each well of a 96-well plate and incubate at 37° C. for 5 minutes. Then add 20 μL vehicle (HBSS with 1% DMSO) or drug and incubate for 15 minutes at 37° C. Add 10 μl calcium ionophore and incubate 15 minutes at 37° C. Stop the reaction on slush ice for 5 minutes and assay supernatants immediately for TXB2 production via RIA or EIA.
Prepare all drugs at 10 mM in DMSO by diluting the drug in HBSS at a 1.100 ratio with 1% DMSO to 100 μM. Add 20 μl to PRP (1:10 ratio) to obtain 10 μM final concentration. The calcium ionophore is prepared by using 7 mg/mL free acid calcium ionophore in DMSO, which is warmed until the ionophore goes into solution. Just prior to use, dilute the solution 1:25 with HBSS.

For test [4], the target named is T3, human prostaglandin H2 synthase type I (COX-1) (Homo sapiens, UniProt P23219).
T3 construct: expressed in transfected cells; host or cells: COS-7 (African Green Monkey Kidney)
As to the kind of experiment: Human prostaglandin H2 synthase type I (COX-1) homogenate assay (transfected COS-7 cells, PGE2 formation). The test is classed as biochemical. The settings on record: COS-7 homogenate; for inhibition at 10 µM: read-out: P6: COX 1 Homogenized Cell % Inhibition. The protocol: HUMAN PROSTAGLANDIN H2 SYNTHASE--TYPE I (COX-1) HOMOGENATE ASSAY (SINGLE CONCENTRATION)
Procedures 6 and 7 were used to assess COX-1 activity in a homogenized cell assay as follows:
(§1) COS-7 (African Green Monkey Kidney) cells are maintained in a suitable medium, and are trypsinized and plated at a density of 1×10^6 cells/well of a 6 well plate prior to assay. Approximately 24 hours later, cells are transiently transfected with a plasmid containing the human COX-1 gene using the lipofectamine method. Two days later, the cell-free homogenate is prepared by subjecting the cells to a polytron followed by centrifugation at 9,000×g. COX activity, initiated by the addition of […] arachidonic acid to the 9,000×g supernatant, is monitored in the presence of vehicle or drug. Product (PGE2) formation is quantitated by radioimmunoassay. Activity, reported as percent inhibition of PGE2 produced, is calculated as follows: [formula]

Test [5] has as its target T1, human prostaglandin H2 synthase type II (COX-2). As to the kind of experiment: Human prostaglandin H2 synthase type II (hCOX-2) homogenate assay (transfected COS-7 cells, PGE2 formation). The test is classed as biochemical. On the set-up: expressed in transfected cells; host or cells: COS-7 (African Green Monkey Kidney). The settings on record: for inhibition at 10 µM: read-out: P3: COX 2 Homogenized Cell % Inhibition; for IC50: read-out: P4: COX 2 Homogenized Cell IC50. The protocol: HUMAN PROSTAGLANDIN H2 SYNTHASE TYPE II (hCOX-2) HOMOGENATE ASSAY (SINGLE CONCENTRATION)
Procedures 3 and 4 were used to assess COX-2 activity in a homogenized cell assay as follows:
as §1, with “COX-2” for “COX-1”

T3 sequence (P23219 24-599): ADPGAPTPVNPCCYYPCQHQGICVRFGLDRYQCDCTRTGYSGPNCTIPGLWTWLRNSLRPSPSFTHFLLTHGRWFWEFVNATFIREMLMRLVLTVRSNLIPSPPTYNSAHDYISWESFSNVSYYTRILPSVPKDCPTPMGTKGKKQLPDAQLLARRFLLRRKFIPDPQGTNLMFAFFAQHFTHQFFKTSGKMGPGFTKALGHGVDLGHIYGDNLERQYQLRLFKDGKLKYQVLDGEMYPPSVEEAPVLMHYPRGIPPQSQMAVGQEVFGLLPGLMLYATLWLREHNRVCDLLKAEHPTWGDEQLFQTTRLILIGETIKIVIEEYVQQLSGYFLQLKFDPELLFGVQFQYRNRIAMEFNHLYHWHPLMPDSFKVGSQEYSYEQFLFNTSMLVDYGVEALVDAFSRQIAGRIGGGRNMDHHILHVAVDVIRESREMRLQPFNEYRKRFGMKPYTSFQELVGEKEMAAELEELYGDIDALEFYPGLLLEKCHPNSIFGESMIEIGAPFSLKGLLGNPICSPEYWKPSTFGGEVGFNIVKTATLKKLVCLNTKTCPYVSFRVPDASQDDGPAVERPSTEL
T2 sequence (P23219 24-599): as above

For the molecule `CCOc1ccc2c(-c3ccc(F)cc3)nn(-c3ccc(S(C)(=O)=O)cc3)c2c1` [Example 32j], the inhibition (usually the change of the read-out against control, counted positive when it falls) at 3 µM came to 87% in test [1] and 35% on COX-1 [2].

Take `CS(=O)(=O)c1ccc(-n2nc(-c3ccc(Cl)cc3)c3c2C=CCC3)cc1` [Example 4a, 3-(4-Chlorophenyl)-4,5-dihydro-1-(4-methylsulfonylphenyl)-1H-indazole]: the inhibition at 10 µM was determined as 0% in test [1] and 32% in test [4]. Moreover, the IC50 (commonly the point on the concentration scale where inhibition reaches its midpoint) in test [1] was over 10000 nM; on COX-1 [3], over 10 µM.

In the case of `COc1ccc(-n2nc(-c3ccc(Cl)cc3)c3c2CCCCC3)cc1` [Example 8, 3-(4-Chlorophenyl)-1-(4-methoxyphenyl)-cycloheptano-[1,2-d]-pyrazole], the IC50 in test [1] was determined as 1560 nM; in test [5] (COS-7 homogenate) it was 380 nM; in test [4] (read-out: P7: COX 1 Homogenized Cell IC50), 5.3 µM. Further, the inhibition at 10 µM in test [5] (@10 μM, COS-7 homogenate) was 92%; in test [4] it was 25%.

Regarding `Cc1ccc(-n2nc(-c3ccc(Cl)cc3)c3c2CCCCC3)cc1` [Example 11, 3-(4-Chlorophenyl)-1-(4-methylphenyl)-cycloheptano-[1,2-d]-pyrazole], the IC50 in test [1] was 640 nM. Further, the inhibition at 10 µM in test [5] is 40%; in test [4], 74%.

Regarding `CS(=O)(=O)c1ccc(-n2nc3c(c2-c2ccc(C(F)(F)F)cc2)CCC=C3)cc1` [Example 32c], the IC50 in test [1] worked out at 610 nM. For the same molecule, the inhibition at 3 µM on COX-1 [2] is 24%.

Turning to `Clc1ccc(-c2nn(-c3ccccc3)c3c2CCCCC3)cc1` [Example 12, 3-(4-Chlorophenyl)-1-phenyl-cycloheptano-[1,2-d]-pyrazole], the IC50 in test [1] stood at 140 nM; at COX-1 [3], 1 µM. The inhibition at 10 µM in test [4] came out at 93%.

Consider `COc1ccc(-n2nc(-c3ccc(F)cc3)c3c2CCCCC3)cc1` [Example 9, 3-(4-Fluorophenyl)-1-(4-methoxyphenyl)-cycloheptano-[1,2-d]-pyrazole], for which the IC50 is 2510 nM in test [1], 2500 nM in test [5] (COS-7 homogenate) and over 10 µM on COX-1 [3]. Besides, in test [4], the inhibition at 10 µM was 64%.

For `CS(=O)(=O)c1ccc(C(=O)C2CC(=O)CCC2=O)cc1` (stereo not drawn) [Example 29f], the inhibition at 3 µM was 66% in test [1] and 6% at COX-1 [2].

As to `CS(=O)(=O)c1ccc(-n2nc(-c3ccc(F)cc3)c3c2C=CCC3)cc1` [Example 5a, 3-(4-Fluorophenyl)-4,5-dihydro-1-(4-methylsulfonylphenyl)-1H-indazole], the inhibition at 10 µM amounted to 9% in test [1]; 6% in test [5] (@10 μM, COS-7 homogenate); 32% in test [4]. Also, the IC50 in test [1] is over 10000 nM; on COX-1 [3], over 10 µM.

For `Fc1ccc(-n2nc(-c3ccc(Cl)cc3)c3ccc4[nH]c5ccc(F)cc5c4c32)cc1` [Example 32k], the inhibition at 3 µM in test [1] stood at 29%; on COX-1 [2] it was 22%.

Turning to `CS(=O)(=O)c1ccc(-n2nc(-c3ccc(Cl)cc3)c3c2CCCCC3)cc1` [Example 10, 3-(4-Chlorophenyl)-1-(4-methylsulfonylphenyl)-cycloheptano-[1,2-d]-pyrazole], the inhibition at 10 µM in test [1] was 5%; in test [5] (@10 μM, COS-7 homogenate), 26%; in test [4], 24%. In addition, the IC50 on COX-1 [3] is 10 µM.
